Legend:
[1] = test system: flies heterozygous for the Drosophila presenilin gene; assay: Short term memory in presenilin mutant Drosophila model of Alzheimer's disease; format: in vivo; details: 30 days of age; data not shown
From the text: We have also discovered that there is a deficit in long term memory in these flies as young adults, and there is also an age dependent deficit in these flies in short term memory at 30 days of age (data not shown). This age dependent deficit in short term memory is rescued by treatment with LY341495. Additionally, this age dependent deficit is rescued by lowering IP3R expression by making these presenilin mutant lines heterozygous for an IP3R deletion (data not shown).

[2] = test system: FS (dFMR1-3+frame shifted rescue fragment) flies; assay: Quality of naive courtship (progress to later courtship steps), FS flies; format: in vivo, Drosophila melanogaster
Procedure: In order to determine if MPEP can get into the Drosophila central nervous system (CNS) through feeding behavior, we mixed MPEP into the food at a concentration of 1,000 μg/ml (433.0 μM). Males were raised on CT food and then placed on either CT or M food. Naive males were placed in the training chamber for one hour with no female, and then placed with a virgin target female for a ten-minute interval. The naive courtship behavior was reduced by high MPEP concentration in Rescue (p<0.0001) and FS (p<0.0005) lines, and it was depressed to similar levels by high MPEP treatment in the Rescue and FS groups (FIG. 2A). […] FIG. 2B dissects the steps involved in naive courtship behavior. […] Lowering the dose of MPEP and examining naive courtship. We next decided to try a lower dose of MPEP to 200 μg/ml (86.6 μM) mixed into the food of the Drosophila. In these experiments flies were placed on either CT or M food in the larval stage and then placed on either CT of M food within four hours of eclosion. […] Therefore giving this drug in adulthood only is effective in enhancing naive courtship behavior. […] The MPEP in development can rescue the naive courtship phenotype regardless of whether or not the flies receive it as adults. Further analysis of the quality of courtship that was performed by naive males was assessed by binning the number of males to advance to a particular phase of courtship for each genotype and pharmacologic treatment (FIG. 3B).

[3] = test system: Rescue (dFMR1-3+wild type rescue fragment) flies; assay: Conditioned courtship: learning during training, Rescue flies; format: in vivo, Drosophila melanogaster; details: MPEP 200 μg/ml in development, adulthood or both
From the text: The role of dFMR1 in learning during training and immediate recall. The flies used were w1118 (the background stock from which the mutation was derived), dFMR1-3 (the mutation lacking dFMR1 expression), Rescue (dFMR1-3+wild type rescue fragment) and FS (frame shift, dFMR1-3+frame shifted rescue fragment) all from Dockendorff et al, 2002. To assess learning during training male flies are placed in a training chamber with a previously mated female for one hour. The amount of time the male spent courting in the initial ten-minute interval was compared to the amount of time the male spent courting the female target in the final ten-minute interval (FIG. 1). […] It is important to note that the level of courtship behavior towards the previously mated female is similar between the two mutant groups and the w1118 and Rescue groups. […] This is important to note, because without actively courting, the male fly cannot be trained (Tompkins et al. 1982; 1983).
Learning during training. In order to assess learning during training, the male flies were placed in a training chamber with a previously mated female for one hour. The amount of time the male spent courting in the first ten-minute interval was compared to the amount of time the male spent courting the female target in the last ten-minute interval (FIG. 4A).
Behavioral Training and Testing. […]

[4] = test system: Rescue (dFMR1-3+wild type rescue fragment) flies; assay: Conditioned courtship: immediate recall (0 minute memory), Rescue flies; format: in vivo, Drosophila melanogaster
Procedure: To assess immediate recall (0 minute memory), after the one hour training session with a previously mated female, the male was placed with a virgin target female for a ten-minute interval. This CI was then compared to the courtship level of naive males that had been placed in the training chamber for one hour with no female, before introducing them to a virgin target female for a ten-minute interval. In FIG. 1B the w1118 and Rescue lines show depression of courtship activity after training compared to naive trained males (p<0.005). However, dFMR1-3 and FS mutant lines court just as vigorously after training with a previously mated female as naive trained males, therefore these flies display no experience dependent behavioral plasticity at the time point of immediate recall. This is in spite of the fact that they court to similar levels as w1118 and Rescue lines during the training period. This implicates a deficit in synaptic plasticity for the two mutant lines at immediate recall (0 minute memory). This robust deficit in behavioral plasticity is a critical extension of the previous models of Fragile X syndrome in model organisms, since this has been completely missing in Drosophila models and is subtle in murine models, and particularly since this may be one of the most devastating aspects of the human disease.
Immediate recall. […]

`N[C@](CC1c2ccccc2Oc2ccccc21)(C(=O)O)[C@H]1C[C@@H]1C(=O)O` [LY341495, (2S)-2-amino-2-[(1S,2S)-2-carboxycycloprop-1-yl]-3-(xanth-9-yl) propionic acid] was tested, and the “age dependent deficit in short term memory” value [1] was “rescued”.

`Cc1cccc(C#Cc2ccccc2)n1` [MPEP, 2-methyl-6-(phenylethynyl)pyridine] was tested, and the “quality of naive courtship” value ([2]; 20-day-old, MPEP (86.6 μM)) was “in adulthood, but not in development alone, MPEP treatment can affect the quality of naive courtship behavior”, the “quality of naive courtship” value ([2]; 5 day old, MPEP 200 μg/ml in development or adulthood) was “can affect the quality of naive courtship behavior” and the “steps involved in naive courtship behavior” value ([2]; 5 day old, MPEP 1,000 μg/ml in adulthood, relative to CT-CT Rescue) was “failed to progress to later steps in courtship behavior”. For the same compound, the “learning during training (initial vs final courtship levels)” value ([3]; 20-day-old) was “significant depression from the initial to final intervals”, the learning during training ([3]; 5 day old) was “does not adversely affect learning during training” and the immediate recall ([4]; 20-day-old, MPEP in development or adulthood or both) was “does not adversely affect immediate recall”. The immediate recall ([4]; 5 day old, MPEP 200 μg/ml in development or adulthood or both) was “does not adversely affect immediate recall”.
